From PMC7532674, “Synthesis and preliminary studies of ^11C-labeled tetrahydro-1,7-naphthyridine-2-carboxamides for PET imaging of metabotropic glutamate receptor 2” (Theranostics, 2020)

Assays:
mGlu2 [1] = conditions: cited from earlier work
human mGlu3 = target: T1, human mGlu3 (Homo sapiens, UniProt Q14832); assay: Human mGlu3 GIRK thallium flux assay; assay type: cell-based; conditions: HEK293 cells, triplicate assays (14g duplicate)
T1 construct: expressed in transfected cells
Protocol: (§1) Cell Line Generation and Thallium Flux Assays. The general procedure for the preparation of human mGlu2 and mGlu3 was described previously, [56] with minor modifications in this work. The cloning sites were NheI/NotI for both receptors. HEK GIRK cells, generously provided by Lily Jan (University of California San Francisco, San Francisco, CA), were transfected with 24 μg of DNA using Fugene6 (Promega), stable transfectants were selected with 1 μg/mL puromycin dihydrochloride (Sigma-Aldrich, St. Louis, MO), and polyclonal human mGlu2 GIRK and mGlu3 GIRK cell lines were established. Cells were maintained following selection in 45% DMEM, 45% Ham's F12, 10% FBS, 100 units/mL penicillin/streptomycin, 20 mM HEPES, pH 7.3, 1 mM sodium pyruvate, 2 mM glutamine, 700 μg/mL G418 (Mediatech, Inc., Herndon, VA), and […] puromycin (growth media) at 37 °C in the presence of 5% CO2. All cell culture reagents were purchased from Invitrogen Corp. (Carlsbad, CA) unless otherwise noted.
(§2) Human mGlu2 and mGlu3 Thallium Flux in Vitro Assays. Potencies of these NAMs at both mGlu2 and mGlu3 were investigated by thallium flux through GIRK channels, which was disclosed in detail as well as described in our previous work. In particular, cells were plated into 384-well, black-walled, clear-bottomed poly(D-lysine_-coated plates at a density of 15 000 cells per well in 20 μL of DMEM containing 10% dialyzed FBS, 20 mM HEPES, and 100 units/mL penicillin/streptomycin (assay media). Plated cells were incubated overnight at 37 °C in the presence of 5% CO2. The next day, the medium was exchanged from the cells to assay buffer [Hanks' balanced salt solution (Invitrogen) containing 20 mM HEPES, pH 7.3] using an ELX405 microplate washer (BioTek), leaving 20 μL per well, followed by the addition of 20 μL per well of FluoZin2-AM (330 nM final concentration) indicator dye (Invitrogen; prepared as a stock in DMSO and mixed in a 1:1 ratio with Pluronic acid F-127) in assay buffer. Cells were incubated for 1 h at room temperature, and the dye was exchanged to assay buffer using an ELX405, leaving 20 μL per well. For concentration-response curve experiments, compounds were serially diluted 1:3 into 10 point concentration-response curves and were transferred to daughter plates using an Echo acoustic plate reformatter (Labcyte, Sunnyvale, CA). Test compounds were diluted to 2 times their final desired concentration in assay buffer (0.3% DMSO final concentration). Agonists were diluted in thallium buffer [125 mM sodium bicarbonate (added fresh the morning of the experiment), 1 mM magnesium sulfate, 1.8 mM calcium sulfate, 5 mM glucose, 12 mM thallium sulfate, and 10 mM HEPES, pH 7.3] at 5 times the final concentration to be assayed. Cell plates and compound plates were loaded onto a kinetic imaging plate reader (FDSS 6000 or 7000; Hamamatsu Corporation, Bridgewater, NJ). Appropriate baseline readings were taken (10 images at 1 Hz; excitation, 470 ± 20 nm; emission, 540 ± 30 nm), and test compounds were added in a 20 μL volume and incubated for approximately 1 h at room temperature before the addition of 10 μL of thallium buffer with or without an EC80 concentration of the agonist glutamate for affinity evaluation experiments or with a full concentration-response of glutamate for Schild analysis experiments. After the addition of agonist, data were collected for approximately an additional 2.5 min. Data were analyzed using Excel (Microsoft Corp, Redmond, WA). The slope of the fluorescence increase beginning 5 s after thallium/agonist addition and ending 15 s after thallium/agonist addition was calculated, corrected to vehicle and maximal agonist control slope values, and plotted using either XLfit (ID Business Solutions Ltd.) or Prism software (GraphPad Software, San Diego, CA) to generate concentration-response curves. Potencies were calculated from fits using a four-point parameter logistic equation.

human mGlu2 = target: T2, human mGlu2 (Homo sapiens, UniProt Q14416); assay: Human mGlu2 GIRK thallium flux assay; assay type: cell-based; conditions: HEK293 cells, EC80 glutamate, triplicate assays (14g duplicate)
T2 construct: expressed in transfected cells
Protocol: as §1, §2

mGlu2 [2] = target: T3, mGlu2 (Rattus norvegicus, UniProt P31421); assay: In vitro autoradiography in rat brain sections; assay type: binding; design: from tissue; host or cells: Sprague-Dawley rat brain sections; conditions: preincubated with unlabeled QCA, 14b or 14a at 10 µM
Protocol: Sagittal rat brain slices were prepared into 20 μm sections with a cryostat (HM560; Carl Zeiss, Oberkochen, Germany), mounted on air plasma spray-coated glass slides, and stored at -80 °C before used for experiments. The sections were preincubated for 15 min in a glass tank containing 200 mL of Tris·HCl buffer (50 mM, pH 7.4) consisting of 2 mM of MgCl2 and 1.2 mM of CaCl2 at room temperature. After preincubation, the sections were incubated in a fresh buffer containing [^11C]14a or [^11C]14b (250 µCi in 200 mL buffer; molar activity 2.7 Ci/µmol of [^11C]14a and 2.5 Ci/µmol of [^11C]14b, respectively) in the glass tank for 30 min at room temperature. For blocking studies, non-radioactive 14a or 14b (10 μM) and QCA (10 μM) were chosen to determine the specificity of radiotracers for binding mGlu2. Six serial brain sections were used for each conditions. After incubation, brain sections were washed with cold buffer (3 × 5 min), immersed in cold distilled water, and then dried with cold air. The sections were placed in contact with imaging plates (BAS-MS2025, FUJIFILM, Tokyo, Japan). Autoradiograms were obtained and photostimulated luminescence (PSL) values in the ROIs were measured using a Bio-Imaging Analyzer System (BAS5000, FUJIFILM).

mGlu2 [3] = target: T3, mGlu2; assay: Dynamic PET imaging in rat brain; assay type: in vivo, SD rats; design: from tissue; host or cells: brain of living SD rats
Protocol: As we previously reported, PET scans were carried out by an Inveon PET scanner (Siemens Medical Solutions, Knoxville, TN, USA). During the scan, SD rats were anesthetized by oxygen mixed with 1-2% (v/v) isoflurane and kept body temperature at […] by a commercially available circulation system (T/Pump TP401, Gaymar Industries, Orchard Park, NY). A 24-gauge catheter was inserted into the tail vein to facilitate a bolus injection. The radiotracer [^11C]14a or [^11C]14b (ca. 1 mCi / 150-200 μL) was injected into the rat via the preinstalled catheter, and the dynamic acquisition of PET signals in rat brain was started at the same time and lasted for 60 min in 3D list mode. For pretreatment studies, 14a (1 mg/kg for [^11C]14a for self-blocking study in Figure S2; 3 mg/kg for [^11C]14b for blocking study in Figure S12C) or 14b (1 mg/kg for [^11C]14b for self-blocking study in Figure S12B), formulated in 300 μL of saline containing 10% ethanol and 5% Tween 80, was injected at 30 min via the tail vein catheter prior to the injection of [^11C]14a or [^11C]14b. The dynamic emission data were reconstructed by filtered back projection using Hanning's filter with a Nyquist cutoff of 0.5 cycle/pixel into 33 frames (10 s × twelve frames, 20 s × three frames, 30 s × three frames, 60 s × three frames, 150 s × three frames, and 300 s × nine frames). The TACs of [^11C]14a or [^11C]14b were analyzed from volumes of interest in the striatum, hippocampus, cortex, thalamus, pons and cerebellum normalized to a rat brain MRI template using PMOD software (version 3.4; PMOD technology, Zurich, Switzerland). The radioactivity was decay-corrected to the injection time and expressed as the standardized uptake value (SUV) which equals to (radioactivity per milliliter of tissue per injected radioactivity) × (gram of body weight). To obtain non-displaceable binding potential (BPND), simplified reference tissue model (SRTM), [54] was carried out on the basis of kinetic analysis using PMOD software. We acquired BP-parametric images using kinetic modeling without masking. Respective TACs in receptor-rich or -poor region were loaded for production of BP-map with default setting. Representative parametric images scaled with BPND were reconstructed by PMOD software using TACs in mGlu2-enriched and reference regions. Pons was selected as the reference region for mGlu2 (the lowest and consistent brain uptake and washout kinetics between baseline and blocking conditions). It should be noted that while there is a low-level expression of mGlu2 in the pons, it is not without existence. A reference region should be a region devoid of the target, but with similar tracer transport or diffusion to the other regions of interest with expression of the target. Therefore, there are some limitations when using pons as the reference region. For example, the partial volume effect in PET likely leads to spillover of activity from nearby higher uptake regions into the pons, artificially increasing the time-activity curve in the pons.

T1 sequence (Q14832 23-879): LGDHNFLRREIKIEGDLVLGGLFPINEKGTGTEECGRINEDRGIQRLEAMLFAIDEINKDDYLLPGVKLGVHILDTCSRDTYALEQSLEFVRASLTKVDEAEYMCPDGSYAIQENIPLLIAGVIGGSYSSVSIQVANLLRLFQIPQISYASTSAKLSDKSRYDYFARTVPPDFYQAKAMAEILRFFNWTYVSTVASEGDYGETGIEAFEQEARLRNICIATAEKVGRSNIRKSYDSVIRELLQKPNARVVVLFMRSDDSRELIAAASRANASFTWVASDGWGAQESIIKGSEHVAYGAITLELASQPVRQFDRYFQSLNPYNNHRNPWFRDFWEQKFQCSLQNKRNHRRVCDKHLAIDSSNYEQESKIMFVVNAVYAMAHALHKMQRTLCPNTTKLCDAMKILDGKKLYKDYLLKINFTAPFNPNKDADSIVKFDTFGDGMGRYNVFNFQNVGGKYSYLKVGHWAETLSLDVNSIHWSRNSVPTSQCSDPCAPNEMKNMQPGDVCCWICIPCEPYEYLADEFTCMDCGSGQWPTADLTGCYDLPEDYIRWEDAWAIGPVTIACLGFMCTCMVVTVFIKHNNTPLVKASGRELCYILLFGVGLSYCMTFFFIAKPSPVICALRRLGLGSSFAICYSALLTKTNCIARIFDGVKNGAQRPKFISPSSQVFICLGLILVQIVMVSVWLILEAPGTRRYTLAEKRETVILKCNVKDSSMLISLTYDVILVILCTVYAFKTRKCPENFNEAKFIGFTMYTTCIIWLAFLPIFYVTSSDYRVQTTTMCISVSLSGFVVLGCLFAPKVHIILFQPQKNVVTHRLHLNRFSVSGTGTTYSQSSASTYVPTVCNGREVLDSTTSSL
T2 sequence (Q14416 19-872): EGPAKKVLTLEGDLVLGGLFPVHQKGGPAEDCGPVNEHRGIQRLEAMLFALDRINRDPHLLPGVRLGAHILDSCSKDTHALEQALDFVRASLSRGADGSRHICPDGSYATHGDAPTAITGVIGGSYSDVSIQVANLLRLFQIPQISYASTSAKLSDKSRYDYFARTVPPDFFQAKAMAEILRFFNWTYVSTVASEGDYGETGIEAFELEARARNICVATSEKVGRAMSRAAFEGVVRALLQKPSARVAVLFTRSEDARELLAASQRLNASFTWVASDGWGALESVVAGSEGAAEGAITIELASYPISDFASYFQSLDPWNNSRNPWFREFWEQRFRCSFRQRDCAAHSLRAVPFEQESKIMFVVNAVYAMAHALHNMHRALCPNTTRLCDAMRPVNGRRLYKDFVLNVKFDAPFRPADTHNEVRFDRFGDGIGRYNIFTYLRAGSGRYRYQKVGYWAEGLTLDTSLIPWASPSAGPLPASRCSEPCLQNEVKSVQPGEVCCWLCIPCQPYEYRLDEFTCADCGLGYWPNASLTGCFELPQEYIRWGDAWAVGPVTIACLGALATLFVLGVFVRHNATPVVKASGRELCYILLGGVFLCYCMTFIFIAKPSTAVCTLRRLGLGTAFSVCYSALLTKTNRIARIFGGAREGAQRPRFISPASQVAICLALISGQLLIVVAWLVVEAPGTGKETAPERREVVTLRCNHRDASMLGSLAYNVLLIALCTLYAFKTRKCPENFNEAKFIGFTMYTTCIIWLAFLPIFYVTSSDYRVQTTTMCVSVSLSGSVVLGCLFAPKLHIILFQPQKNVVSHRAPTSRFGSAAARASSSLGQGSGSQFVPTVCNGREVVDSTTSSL
T3 sequence (P31421 19-872): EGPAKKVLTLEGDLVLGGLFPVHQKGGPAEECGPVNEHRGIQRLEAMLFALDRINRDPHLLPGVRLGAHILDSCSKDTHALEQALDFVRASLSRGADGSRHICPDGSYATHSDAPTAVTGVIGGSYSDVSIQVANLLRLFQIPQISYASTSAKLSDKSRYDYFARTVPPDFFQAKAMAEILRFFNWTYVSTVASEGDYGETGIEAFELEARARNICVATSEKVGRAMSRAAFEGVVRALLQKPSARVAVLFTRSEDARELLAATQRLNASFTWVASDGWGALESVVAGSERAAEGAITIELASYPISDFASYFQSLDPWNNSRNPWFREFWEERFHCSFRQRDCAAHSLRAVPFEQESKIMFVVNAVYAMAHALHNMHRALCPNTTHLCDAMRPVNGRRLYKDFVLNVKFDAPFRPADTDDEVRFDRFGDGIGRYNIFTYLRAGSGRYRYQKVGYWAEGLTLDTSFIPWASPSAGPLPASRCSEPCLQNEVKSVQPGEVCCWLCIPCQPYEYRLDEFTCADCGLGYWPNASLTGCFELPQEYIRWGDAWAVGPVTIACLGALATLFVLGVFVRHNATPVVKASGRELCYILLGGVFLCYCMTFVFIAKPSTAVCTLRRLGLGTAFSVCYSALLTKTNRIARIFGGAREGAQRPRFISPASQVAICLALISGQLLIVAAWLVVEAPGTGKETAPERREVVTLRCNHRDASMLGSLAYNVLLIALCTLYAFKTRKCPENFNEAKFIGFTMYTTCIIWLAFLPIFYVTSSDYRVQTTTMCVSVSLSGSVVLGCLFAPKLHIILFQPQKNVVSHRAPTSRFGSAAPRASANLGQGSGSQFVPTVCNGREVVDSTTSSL

Row | Compound | IC50 (mGlu2 [1]) [nM] | IC50 (human mGlu3) [µM] | IC50 (human mGlu2) [nM] | also measured
1 | [11CH3]Oc1c(F)ccc(F)c1C1CCN(c2ccn3c(CC4CC4)nnc3c2Cl)CC1 [[^11C]JNJ42491293] | 7.5 | – | – | –
2 | [11CH3]Oc1ccc(C2CCN(c3ccn(CC4CC4)c(=O)c3C#N)CC2)cc1 [[^11C]CMDC, 1-(cyclopropylmethyl)-4-(4-[^11C]methoxyphenyl)-piperidin-1-yl-2-oxo-1,2-dihydropyridine-3-carbonitrile] | 98 | – | – | –
3 | COc1ccc(-c2cc(C(N)=O)nc3c2CCN(Cc2cnc(OC)nc2)C3)c(F)c1 [14f, 4-(2-fluoro-4-methoxyphenyl)-7-((2-methoxypyrimidin-5-yl)methyl)-5,6,7,8-tetrahydro-1,7-naphthyridine-2-carboxamide] | – | > 10 | 318 | –
4 | COc1ccc(-c2cc(C(N)=O)nc3c2CCN(Cc2ccnc(OC)c2)C3)c(F)c1 [14a, 4-(2-fluoro-4-methoxyphenyl)-7-((2-methoxypyridin-4-yl)methyl)-5,6,7,8-tetrahydro-1,7-naphthyridine-2-carboxamide] | – | > 10 | 39 | –
5 | COc1cc(CN2CCc3c(-c4ccc(F)cc4OC)cc(C(N)=O)nc3C2)ccn1 [14d, 4-(4-fluoro-2-methoxyphenyl)-7-((2-methoxypyridin-4-yl)methyl)-5,6,7,8-tetrahydro-1,7-naphthyridine-2-carboxamide] | – | > 10 | 39 | –
6 | COc1cc(CN2CCc3c(-c4ccc(O[11CH3])cc4F)cc(C(N)=O)nc3C2)ccn1 [[^11C]14a, 4-(2-fluoro-4-(methoxy-^11C)phenyl)-7-((2-methoxy-pyridin-4-yl)methyl)-5,6,7,8-tetrahydro-1,7-naphthyridine-2-carboxamide] | – | – | – | Decrease of region-to-pons ratios under blocking (mGlu2 [2]): 17-54%; Peak uptake in the striatum (mGlu2 [3]; SD rats, at 2.5 min): 1.7 SUV; Time of peak radioactivity in brain regions (mGlu2 [3]; SD rats, i.v.): 2.5 min; In vivo specificity (mGlu2 [3]; pretreatment with 14a (1 mg/kg)): low-to-modest
7 | COc1cc(CN2CCc3c(-c4ccc(C)cc4F)cc(C(N)=O)nc3C2)ccn1 [14c, 4-(2-fluoro-4-methyphenyl)-7-((2-methoxypyridin-4-yl)methyl)-5,6,7,8-tetrahydro-1,7-naphthyridine-2-carboxamide] | – | > 10 | 129 | –
8 | [11CH3]Oc1cccc(CC[C@@](N)(C(=O)O)[C@H]2C[C@@H]2C(=O)O)c1 [[^11C]CMG] | 94 | – | – | –
9 | COc1ncc(CN2CCc3c(-c4ccc(C)cc4F)cc(C(N)=O)nc3C2)cn1 [14e, 4-(2-fluoro-4-methyphenyl)-7-((2-methoxypyrimidin-5-yl)methyl)-5,6,7,8-tetrahydro-1,7-naphthyridine-2-carboxamide] | – | > 10 | 106 | –
10 | COc1cc(CN2CCc3c(-c4ccc(F)cc4Cl)cc(C(N)=O)nc3C2)ccn1 [14g] | – | > 30 | 87 | –
